According to patent publication US9237761B2, “Methods and diets for lowering glucose and/or IGF-1 levels” (priority 2013, dated 2016):

How the values were obtained:
[1] = 24 mg/kg i.v., mice fed ad lib AIN93G
4T1 breast cancer = 4T1 breast cancer subcutaneous tumor progression with cisplatin; assay type: in vivo, BalB/C mice; settings: three cycles, 12, 8, 8 mg/kg i.v. days 15, 33, 44
Description: Murine 4T1 breast cancer and GL26 glioma cells were maintained in DMEM (Invitrogen) supplemented with 10% fetal bovine serum (FBS) at 37° C. under 5% CO2. Cells in log phase growth were washed and suspended in PBS at 2×10^6 cells/mL and injected subcutaneously (s.c., 2×10^5 cells/mouse in 100 μL PBS) in the lower back region of the mouse. Tumor size was measured using a caliper. To mimic multi-cycle treatments in humans, mice were treated intravenously (i.v., lateral tail vein) with Cisplatin (Teva Parenteral Medicines Inc.) three times on days 15, 33 and 44 after tumor inoculation at 12, 8 and 8 mg/kg body weight, respectively. Mice were monitored daily and animals showing signs of severe stress, deteriorating health status or excess tumor load (2000 mm^3) were designated as moribund and euthanized.
The efficacy of STS in augmenting the treatment of various cancers is twofold: it protects against chemotherapy-induced toxicity to normal cells/tissues and sensitizes malignant cells to chemotherapeutic agents. […] To test whether a short-term intermittent 50% CR (ICR) diet could result in similar beneficial effects as the established fasting protocols, murine 4T1 breast cancer cells were implanted subcutaneously into female BalB/C mice and monitored the tumor progression. […]

Compound: COc1cccc2c1C(=O)c1c(O)c3c(c(O)c1C2=O)C[C@@](O)(C(=O)CO)C[C@@H]3O[C@H]1C[C@H](N)[C@H](O)[C@H](C)O1 [DXR, Doxorubicin]
- survival by day 25 post injection [1]: 16%

Compound: N.N.[Cl][Pt][Cl] [cisplatin, Cisplatin]
- tumor volume vs untreated mice (4T1 breast cancer): approximately half the size
